The source of these data is patent US10815379B2, “pH sensitive fluorescent probe” (The University of Tokyo, priority 2015, dated 2020).

A short description of data set [1]: Optical characteristics (absorption, fluorescence, excitation spectra) in 100 mM sodium phosphate buffer. It is filed as physicochemical. Particulars: for absorption maximum / absorption wavelength, acidic pH: acidic solution; for absorption maximum / absorption wavelength, basic pH: basic solution. How it is done: The spectral characteristics of compound 1 of the present invention (2,6-diMe BnPiperaIndoSiR) were evaluated. The absorption spectrum, fluorescence spectrum, and excitation spectrum were measured using a Shimadzu UV-1650PC absorption spectrophotometer and a Hitachi F-4500 fluorometer.
(§1) FIG. 2a represents the assumed chemical equilibrium equation of 2,6-diMe BnPiperaIndoSiR. FIGS. 2b, 2c, and 2d respectively represent the absorption, fluorescence, and excitation spectra of 2,6-diMe BnPiperaIndoSiR in 100 mM sodium phosphate buffer (containing 1% DMSO) of different pH.
The spectral characteristics of compound 2 of the present invention (SiRpH3) were evaluated. The absorption spectrum fluorescence spectrum, and excitation spectrum were measured using a Shimadzu UV-1650PC absorption spectrophotometer and a Hitachi F-4500 fluorometer.
(§2) FIGS. 3a, 3b, and 3c represent the absorption, fluorescence, and excitation spectra of SiRpH3 in 100 mM sodium phosphate buffer (containing 1% DMSO) of different pH.
The spectral characteristics of compound 3 of the present invention (SiRpH4) were evaluated. The absorption spectrum fluorescence spectrum, and excitation spectrum were measured using a Shimadzu UV-1650PC absorption spectrophotometer and a Hitachi F-4500 fluorometer.
(§3) FIGS. 4a and 4b represent the absorption and excitation spectra of SiRpH4 in 100 mM sodium phosphate buffer (containing 1% DMSO) of different pH.
The spectral characteristics of compound 4 of the present invention (SiRpH5) were evaluated. The absorption spectrum fluorescence spectrum, and excitation spectrum were measured using a Shimadzu UV-1650PC absorption spectrophotometer and a Hitachi F-4500 fluorometer.
(§4) FIG. 5a represents the assumed chemical equilibrium equation of SiRpH5. FIGS. 5b and 5c represent the absorption and excitation spectra of SiRpH5 in 100 mM sodium phosphate buffer (containing 1%) DMSO) of different pH.

Data set [2] can be described thus: pKa of the protonation reaction from plot of absorbance or fluorescence intensity ratio vs. pH. The data set is classed as physicochemical. The conditions noted are these: for pKa of the protonation reaction: 100 mM sodium phosphate buffer, 1% DMSO. How it is done:
as §1, §2, §3, §4

The conditions of data set [3]: cited from earlier work.
Where [4] appears, read: Table 3, pH 3.0, 100 mM sodium phosphate buffer.
Setting [5] is: Table 3, pH 10.0, 100 mM sodium phosphate buffer.
Setting [6] is: pH 3.0, 100 mM sodium phosphate buffer.
Setting [7] is: pH 10.0, 100 mM sodium phosphate buffer.
Where [8] appears, read: Table 2, pH 3.0, 100 mM sodium phosphate buffer.
The mark [9] stands for this setting: Table 2, pH 7.4, 100 mM sodium phosphate buffer.
[10] abbreviates: Table 2, pH 10.0, 100 mM sodium phosphate buffer.

Read-outs that look alike come from different tables or passages of the source.

For `Cc1cc(C(=O)O)cc(C)c1C1=c2cc3c(cc2[Si](C)(C)c2cc(N4CCN(Cc5ccc(S(=O)(=O)O)cc5S(=O)(=O)O)CC4)ccc21)=[N+](C)CC3.O=C([O-])C(F)(F)F` [SiRpH5], in data set [1] (setting [4]), the Λem came to 679 nm, the Λex amounted to 588 nm, the Φfl came out at 0.21 and the ε is listed as 23,000 M^−1cm^−1. In data set [1] (setting [5]), the Λem is recorded as 690 nm, the Λex was determined as 668 nm, the Φfl is 0.08 and the ε is 33,000 M^−1cm^−1. Also, in data set [1], the “absorption maximum / absorption wavelength, acidic pH” value is listed as “approximately 590 nm” and the “absorption maximum / absorption wavelength, basic pH” value is listed as “approximately 670 nm”. For the same compound, in data set [2] (from plot of fluorescence intensity ratio (700 nm, excitation 580 nm / 663 nm) vs. pH), the “pKa of the protonation reaction” value stood at 6.1. The “shift of the pKa of the ratio value change” value in data set [2] (in comparison to the named probe) was “shifted to the acidic side in comparison to SiRpH4”.

The pKa is the pH at which an ionisable group is half protonated. Take “2′,7′-bis-(2-carboxyethyl)-5- (and -6-)carboxyfluoresceins [BCECF]”: the pKa in data set [3] is given as 7.0.

In the case of `Cc1cccc(C)c1C1=c2cc3c(cc2[Si](C)(C)c2cc(N4CCN(Cc5ccccc5)CC4)ccc21)=[N+](C)CC3.O=C(O)C(F)(F)F` [2,6-diMe BnPiperaIndoSiR], in data set [1] (setting [6]), the Absmax is on record as 588 nm, the E is on record as 26,000 M^−1 cm^−1, the Emmax is recorded as 676 nm and the Φfl was found to be 0.19. In data set [1] (setting [7]), the Absmax was found to be 663 nm, the E is 33,000 M^−1 cm^−1, the Emmax is listed as 689 nm and the Φfl is 0.12. The “decrease of pKa in comparison to 2-Me MePiperaIndoSiR” value in data set [2] (by benzylation of the piperazine aliphatic amino group) was 0.9. In addition, the “pKa of the protonation reaction” value in data set [2] (from changes in absorbance at 663 nm when the pH was varied) was 6.4.

On to `Cc1cccc(C)c1C1=c2cc3c(cc2[Si](C)(C)c2cc(N4CCN(Cc5cccc(F)c5)CC4)ccc21)=[N+](C)CC3.O=C(O)C(F)(F)F` [SiRpH3], for which, in data set [1], the “lengthening of the absorption wavelength as the pH moved from acidic to basic” value is given as “approximately 80 nm”; the “absorption maximum / absorption wavelength, acidic pH” value is recorded as “approximately 580 nm”; the “absorption maximum / absorption wavelength, basic pH” value is given as “approximately 660 nm”. In data set [1] (setting [8]), the Absmax was 585 nm, the E is 25,000 M^−1cm^−1, the Emmax came to 676 nm and the Φfl is 0.20. In addition, in data set [1] (setting [9]), the Absmax was determined as 662 nm, the E is on record as 30,000 M^−1cm^−1, the Emmax amounted to 688 nm and the Φfl worked out at 0.12. In addition, in data set [1] (setting [10]), the Absmax is 663 nm, the E is 31,000 M^−1cm^−1, the Emmax was found to be 689 nm and the Φfl is on record as 0.11.

`Cc1cccc(C)c1C1=c2cc3c(cc2[Si](C)(C)c2cc(N4CCN(Cc5ccccc5S(=O)(=O)O)CC4)ccc21)=[N+](C)CC3` [SiRpH4]: the “shift of the pKa of the ratio value change” value in data set [2] is “shifted to the basic side in comparison to SiRpH3”.
